Where “and” joins values, the source holds several entries; their conditions need not be identical. Equal entries are not always repeated.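 Compound exposure: 48 hours, 5 concentrations, 96-well plates. GI50 = concentration required for 50% inhibition of growth. TGI is the concentration that stops growth completely.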

Test systems include UACC-257 melanoma; SF-268 CNS; SN12C renal; U251 CNS; K-562 leukemia; PC-3 prostate; 786-0 renal.
Common to all, as to experiment: NCI-60 cell line screen, 48 h

Take `O=C1CSC(c2ccc(Cl)cc2Cl)N1c1ccc(F)cc1` (stereo unspecified): the GI50 in the test with UACC-257 melanoma is 20.1 µM; in the test with SF-268 CNS, 16.9 µM; with SN12C renal it was 16.7 µM; in the test on U251 CNS, 17.8 µM; with K-562 leukemia it was 19.8 µM; in the test with PC-3 prostate, 18.5 µM. For the same compound, the GI50 in the test on 786-0 renal was 17.8 µM. The TGI in the test with UACC-257 melanoma was 36.5 µM; in the test with SF-268 CNS it was 32.2 µM; in the test with SN12C renal it was 30.6 µM; in the test on U251 CNS it was 31.7 µM; in the test on K-562 leukemia, 45.7 µM; in the test on PC-3 prostate, 35.5 µM. In the test on 786-0 renal, this compound returned a TGI of 31.7 µM.
Consider `C=C1CCC(CC[C@@H]2CC[C@]3(OC2)O[C@@]2(O)CC[C@]3(C)OC2(C)C)C(C)(C)[C@H]1C/C=C1/C(=O)OC[C@@H]1O` (stereo partly specified), for which the TGI in the test with UACC-257 melanoma came out at 4.84 µM; in the test with SF-268 CNS, 8.89 µM; in the test on SN12C renal, 8.03 µM; with U251 CNS, 6.29 µM; with K-562 leukemia it was 2.38 µM; with PC-3 prostate, 10.7 µM. In the test on 786-0 renal, this compound registered a TGI of 7.78 µM.
Turning to `CCSc1nc(SCC)c2cn[nH]c2n1`, the GI50 with UACC-257 melanoma was 89 µM; in the test on SF-268 CNS, 26.3 µM; in the test on SN12C renal, 47.7 µM; in the test with U251 CNS, 65.7 µM; with K-562 leukemia, 67.1 µM; with PC-3 prostate, 39 µM. The GI50 in the test with 786-0 renal is greater than 100 µM. Moreover, the TGI in the test with UACC-257 melanoma is greater than 100 µM; with SF-268 CNS it was 77.5 µM; in the test on SN12C renal, greater than 100 µM; in the test with U251 CNS, greater than 100 µM; in the test with K-562 leukemia it was greater than 100 µM; with PC-3 prostate, greater than 100 µM. The compound also registered a TGI in the test with 786-0 renal greater than 100 µM.
Consider `COc1ccc(C(=O)COc2ccc(/C=C3\COc4ccc(OC)cc4C3=O)cc2)cc1`, for which the GI50 with UACC-257 melanoma was 52.1 µM; in the test with SF-268 CNS, 23.7 µM; in the test on SN12C renal it was 30.9 µM; in the test on U251 CNS, 13.4 µM; in the test with K-562 leukemia, 4.09 µM; with PC-3 prostate, 12.8 µM. Moreover, in the test on 786-0 renal, the GI50 is 16.7 µM. The TGI was greater than 100 µM in the test with UACC-257 melanoma; 60.5 µM with SF-268 CNS; greater than 100 µM in the test with SN12C renal; 31.2 µM with U251 CNS; 61.2 µM in the test on K-562 leukemia; 47.1 µM in the test with PC-3 prostate. Further, in the test on 786-0 renal, the TGI is 37.9 µM.
Regarding `O=c1c2ccccc2c(=O)c2c1[nH]c1c(-c3ccccc3)c(-c3ccccc3)c(=O)c12`, the GI50 in the test on UACC-257 melanoma was 2.46 µM; in the test on SF-268 CNS it was 4.48 µM; in the test on SN12C renal it was 3.57 µM; with U251 CNS it was 2.27 µM; in the test with K-562 leukemia, 3.68 µM; in the test on PC-3 prostate, 2.67 µM. Moreover, in the test with 786-0 renal, the GI50 was 3.96 µM. Further, the TGI in the test with UACC-257 melanoma is 8.22 µM; in the test on SF-268 CNS, greater than 100 µM; with SN12C renal, 16 µM; in the test with U251 CNS, 4.9 µM; with K-562 leukemia, greater than 100 µM; in the test on PC-3 prostate, 11.1 µM. This compound showed a TGI in the test with 786-0 renal of 14.9 µM.
Regarding `Clc1ccc(C=Nc2ccc3c(c2)Cc2ccccc2-3)c(Cl)c1`, the TGI with UACC-257 melanoma, in the test with SF-268 CNS, with SN12C renal, with U251 CNS, in the test on K-562 leukemia and in the test on PC-3 prostate was greater than 100 µM each time. Further, the TGI in the test on 786-0 renal is greater than 100 µM.
Take `O=c1cc(NC2CCN(CCCc3ccccc3)CC2)c2cc(Cl)ccc2o1`: the GI50 with UACC-257 melanoma is 15.4 µM; in the test with SF-268 CNS, 14.3 µM; in the test with SN12C renal, 13 µM; in the test on U251 CNS it was 9.19 µM; with K-562 leukemia, 3.86 µM; with PC-3 prostate, 12.9 µM. Also, the GI50 with 786-0 renal is 6.55 µM. The TGI in the test on UACC-257 melanoma is 30 µM; in the test on SF-268 CNS, 28.3 µM; in the test with SN12C renal it was 28.2 µM; with U251 CNS it was 21.3 µM; in the test with K-562 leukemia, 20.5 µM; in the test with PC-3 prostate it was 26.9 µM. The compound also yielded a TGI with 786-0 renal of 21.2 µM.
Take `O=C(/C=C\c1ccc(NCc2ccc(C(=O)O)cc2)cc1)CCl`: the GI50 in the test on UACC-257 melanoma is 11.4 µM; with SF-268 CNS, 10.6 µM; in the test on SN12C renal, 11.2 µM; in the test with U251 CNS, 13.9 µM; in the test with K-562 leukemia, 3.36 µM; with PC-3 prostate, 14.2 µM. For the same compound, the GI50 in the test on 786-0 renal is 10.2 µM. In addition, the TGI came out at 23.8 µM in the test on UACC-257 melanoma; 24.7 µM in the test on SF-268 CNS; 23.7 µM in the test with SN12C renal; 27 µM in the test with U251 CNS; 14 µM in the test on K-562 leukemia; 28.9 µM in the test with PC-3 prostate. For the same compound, the TGI in the test with 786-0 renal was found to be 23.9 µM.
Take `C#Cc1c(I)n(C2OC(CO[Si](C)(C)C(C)(C)C)C3OC(C)(C)OC32)c(=O)[nH]c1=O` (stereo unspecified): the GI50 in the test with UACC-257 melanoma was 15.2 µM; in the test on SF-268 CNS, 12.3 µM; in the test on SN12C renal, 18.5 µM; with U251 CNS, 19.5 µM; with K-562 leukemia it was 2.08 µM; with PC-3 prostate it was 1.72 µM. Further, the GI50 with 786-0 renal was 14.7 µM. Also, the TGI in the test with UACC-257 melanoma worked out at 29.8 µM; in the test on SF-268 CNS, 27.8 µM; in the test with SN12C renal it was 37.6 µM; with U251 CNS, 65.8 µM; in the test on K-562 leukemia, 5.37 µM; in the test on PC-3 prostate, 4.27 µM. Further, the TGI in the test with 786-0 renal was found to be 29.4 µM.
On to `CCc1nc(C(N)=O)c(Nc2ccc(N3CCC(N4CCN(C)CC4)CC3)c(OC)c2)nc1NC1CCOCC1`, for which the TGI with UACC-257 melanoma was 24.5 µM and > 10 µM and 24.3 µM; in the test with SF-268 CNS, 22.8 µM and > 2.72 µM and 24.5 µM; with SN12C renal, 20.2 µM and > 10 µM and 17.5 µM; in the test on U251 CNS, 19.8 µM and > 3.84 µM and 21.2 µM; with K-562 leukemia, 33 µM and > 2.39 µM and 45.4 µM; with PC-3 prostate, 25.7 µM and > 10 µM and 26 µM. For the same compound, the TGI with 786-0 renal was 13.8 µM and > 10 µM and 14.1 µM. Besides, the GI50 in the test with SN12C renal is 0.545 µM and 0.247 µM and 0.491 µM; in the test with U251 CNS, 5.9 µM and 1.28 µM and 7.96 µM; in the test with 786-0 renal it was 2.48 µM and 0.461 µM and 2.38 µM.
`O=c1cccc(C#CC#CC2=CCCCC2)o1`: the GI50 in the test on UACC-257 melanoma is 7.49 µM; with SF-268 CNS, 9.15 µM; with SN12C renal, 0.516 µM; in the test on U251 CNS, 4.13 µM; in the test with K-562 leukemia, 3.26 µM; with PC-3 prostate, 6.6 µM. Also, in the test on 786-0 renal, the GI50 is 1.59 µM. Also, the TGI in the test with UACC-257 melanoma is 12.9 µM; in the test on SF-268 CNS, 20.6 µM; in the test with SN12C renal it was 1.48 µM; in the test on U251 CNS it was 9.46 µM; with K-562 leukemia it was greater than 41.8 µM; in the test with PC-3 prostate, 11.6 µM. The TGI with 786-0 renal was 4.35 µM.
